Assay results published in patent US20240309014A1, “MACROCYCLIC COMPOUNDS AND USES THEREOF” (President and Fellows of Harvard College, priority 2017, published 2024).

Key:
[1] = tested on: HSC-2-Luc inoculated into tongue; test: HSC-2 orthotopic transplantation mouse model; type: in vivo, nude mice; conditions: Compound (1) 0.09 mg/kg
[2] = tested on: human breast cancer cell line HCC1954; test: HCC1954 growth inhibition assay (Test Example 24); type: cell-based; conditions: HCC1954, 72 h, 3 days incubation, CellTiter-Glo
Description: (§1) In this assay, the growth inhibitory activities of Compound D-6 (Example 26), E-2, G-4, H-2, I-2, J-1, K-2, L-6, M-3, and N-1 in a human breast cancer cell line HCCl954 were measured. HCC1954 cells were maintained in RPMI-1640 medium modified to contain 2 mM L-glutamine, 10 mM HEPES, 1 mM sodium pyruvate, 4500 mg/L glucose, and 1500 mg/L sodium bicarbonate (ATCC 30-2001) containing 10% fetal bovine serum (FBS: Sigma, 172012), and penicillin and streptomycin (Wako Pure Chemical Industries, Ltd., 168-23191) in a 5% CO2 incubator (37° C.). To each well of a 96 well plate (Becton, Dickinson and Company, 353219), 75 μL of HCC1954 cell suspension adjusted to a concentration of 4×10^4 cells/mL with the culture medium was added, and the cells were incubated overnight in a 5% CO2 incubator (37° C.). On the next day, 25 μL of each compound in three-fold dilution series suspended in the culture medium was added to each well, and the resultant was incubated for 3 days in a 5% CO2 incubator (37° C.). Then, cell viability was determined by CellTiter-Glo® Luminescent Cell Viability Assay (Promega) with EnVision 2103 Multilabel Reader (Perkin-Elmer, Wellesley, MA). Value of the wells containing cells without adding the test substance was defined as 100% and the value of the wells containing no cells was defined as 0%. The concentration of the test substance necessary for inhibiting the cell growth by 50% (i.e., an IC50 value) was calculated, and summarized in Table 14.

MES-SA cells = test: MES-SA growth inhibition assay; type: cell-based; conditions: Homo sapiens, 72 h, 3 days incubation, CellTiter-Glo, read-out: Cell growth inhibition IC50 (nM) MES-SA
Description: as §1, with “1-2,” for “I-2,”, “lung” for “breast”, “MES-SA” for “HCCl954”, “MES-SA” for “HCC1954”, “RPM-1640 (Wako Pure Chemical Industries, Ltd., 187-02021)” for “RPMI-1640”, “medium” for “medium modified to contain 2 mM L-glutamine, 10 mM HEPES, 1 mM sodium pyruvate, 4500 mg/L glucose, and 1500 mg/L sodium bicarbonate (ATCC 30-2001)”

[3] = tested on: human lung cancer cell line NCI-H23; test: NCI-H23 growth inhibition assay; type: cell-based; conditions: NCI-H23, 72 h, 3 days incubation, CellTiter-Glo
Description: as §1, with “1-2,” for “I-2,”, “lung” for “breast”, “NCI-H23” for “HCCl954”, “NCI-H23” for “HCC1954”, “RPM-1640 (Wako Pure Chemical Industries, Ltd., 187-02021)” for “RPMI-1640”, “medium” for “medium modified to contain 2 mM L-glutamine, 10 mM HEPES, 1 mM sodium pyruvate, 4500 mg/L glucose, and 1500 mg/L sodium bicarbonate (ATCC 30-2001)”

[4] = in comparison with Halichondrin B; cited from earlier work
[5] = in vitro and in vivo; cited from earlier work

SMILES | ILS (%) ([1]; single agent, Q7Dx3: cetuximab 5 mg/kg, cisplatin 5 mg/kg) | ILS (%) ([1]; with cetuximab 5 mg/kg, Q7Dx3: cisplatin 5 mg/kg) | IC50 [2] [nM] | IC50 (MES-SA cells) [nM] | IC50 [3] [nM] | stability in aqueous solution [4] | activity relative to Halichondrin B [5]
N.N.[Cl][Pt][Cl] [Cisplatin, cisplatin, reference compound] | 0 | 150 | – | – | – | – | –
C=C1C[C@@H]2CC[C@@]34CC5O[C@H]6[C@@H](O3)[C@H]3O[C@H](CC[C@@H]3O[C@H]6C5O4)CC(=O)O[C@@H]3[C@@H](C)[C@@H]4O[C@@H]5C[C@]6(C[C@@H]7O[C@]8(C[C@H](C)[C@@H]9O[C@H](CO)[C@H](O)C[C@@H]9O8)C[C@H](C)[C@@H]7O6)O[C@@H]5C[C@@H]4O[C@H]3C[C@H]3O[C@@H](CC[C@@H]1O2)C[C@@H](C)C3=C [Compound D-6] | – | – | 0.0104 | 0.0138 | 0.022 | – | –
C=C1C[C@@H]2CC[C@@]34CC5O[C@H]6[C@@H](O3)[C@H]3O[C@H](CC[C@@H]3O[C@H]6C5O4)CC(=O)O[C@@H]3[C@@H](C)[C@@H]4O[C@@H]5C[C@]6(C[C@@H]7O[C@]8(C[C@H](C)[C@@H]9O[C@H](CCO)[C@H](O)C[C@@H]9O8)C[C@H](C)[C@@H]7O6)O[C@@H]5C[C@@H]4O[C@H]3C[C@H]3O[C@@H](CC[C@@H]1O2)C[C@@H](C)C3=C [Compound E-2] | – | – | 0.0805 | 0.856 | 0.595 | – | –
C=C1C[C@@H]2CC[C@@]34C[C@H]5O[C@H]6[C@@H](O3)[C@H]3O[C@H](CC[C@@H]3O[C@H]6[C@H]5O4)CC(=O)O[C@@H]3[C@@H](C)[C@@H]4O[C@@H]5C[C@]6(C[C@@H]7O[C@]8(C[C@H](C)[C@@H]9O[C@H](CCN)[C@H](O)C[C@@H]9O8)C[C@H](C)[C@@H]7O6)O[C@@H]5C[C@@H]4O[C@H]3C[C@H]3O[C@@H](CC[C@@H]1O2)C[C@@H](C)C3=C [Compound G-4] | – | – | 0.0335 | 0.326 | 0.136 | – | –
C=C1C[C@@H]2CC[C@@]34CC5O[C@H]6[C@@H](O3)[C@H]3O[C@H](CC[C@@H]3O[C@H]6C5O4)CC(=O)O[C@@H]3[C@@H](C)[C@@H]4O[C@@H]5C[C@]6(C[C@@H]7O[C@]8(C[C@H](C)[C@@H]9O[C@H](CCOC)[C@H](O)C[C@@H]9O8)C[C@H](C)[C@@H]7O6)O[C@@H]5C[C@@H]4O[C@H]3C[C@H]3O[C@@H](CC[C@@H]1O2)C[C@@H](C)C3=C [Compound I-2] | – | – | 0.00624 | 0.057 | 0.103 | – | –
C=C1C[C@@H]2CC[C@@]34C[C@]5(O)O[C@H]6[C@@H](O3)[C@H]3O[C@H](CC[C@@H]3O[C@H]6C5O4)CC(=O)O[C@@H]3[C@@H](C)[C@@H]4O[C@@H]5C[C@]6(C[C@@H]7O[C@]8(C[C@H](C)[C@@H]9O[C@H](CCO)[C@H](O)C[C@@H]9O8)C[C@H](C)[C@@H]7O6)O[C@@H]5C[C@@H]4O[C@H]3C[C@H]3O[C@@H](CC[C@@H]1O2)C[C@@H](C)C3=C [Compound J-1] | – | – | 0.00308 | 0.0102 | 0.00992 | – | –
C=C1C[C@@H]2CC[C@@]34CC5O[C@H]6[C@@H](O3)[C@H]3O[C@H](CC[C@@H]3O[C@H]6C5O4)CC(=O)O[C@@H]3[C@@H](C)[C@@H]4O[C@@H]5C[C@]6(C[C@@H]7O[C@]8(C[C@H](C)[C@@H]9O[C@H]([C@@H](O)C[C@@H](O)CN)C[C@@H]9O8)C[C@H](C)[C@@H]7O6)O[C@@H]5C[C@@H]4O[C@H]3C[C@H]3O[C@@H](CC[C@@H]1O2)C[C@@H](C)C3=C [Compound K-2] | – | – | 0.07 | 0.341 | 0.461 | – | –
C=C1C[C@@H]2CC[C@@]34C[C@@]5(O)O[C@H]6[C@@H](O3)[C@H]3O[C@H](CC[C@@H]3O[C@H]6[C@H]5O4)CC(=O)O[C@@H]3[C@@H](C)[C@@H]4O[C@@H]5C[C@]6(C[C@@H]7O[C@]8(C[C@H](C)[C@@H]9O[C@H]([C@@H](O)C[C@@H](O)CN)C[C@@H]9O8)C[C@H](C)[C@@H]7O6)O[C@@H]5C[C@@H]4O[C@H]3C[C@H]3O[C@@H](CC[C@@H]1O2)C[C@@H](C)C3=C [Compound L-6] | – | – | 0.269 | 2.79 | 6.81 | – | –
C=C1C[C@@H]2CC[C@@]34CC5O[C@H]6[C@@H](O3)[C@H]3O[C@H](CC[C@@H]3O[C@H]6C5O4)CC(=O)O[C@@H]3[C@@H](C)[C@@H]4O[C@@H]5C[C@]6(C[C@@H]7O[C@]8(C[C@H](C)[C@@H]9O[C@H]([C@@H](O)CCO)C[C@@H]9O8)C[C@H](C)[C@@H]7O6)O[C@@H]5C[C@@H]4O[C@H]3C[C@H]3O[C@@H](CC[C@@H]1O2)C[C@@H](C)C3=C [Compound M-3] | – | – | 0.0101 | 0.0141 | 0.0199 | – | –
C=C1C[C@@H]2CC[C@@]34CC5O[C@H]6[C@@H](O3)[C@H]3O[C@H](CC[C@@H]3O[C@H]6C5O4)CC(=O)O[C@@H]3[C@@H](C)[C@@H]4O[C@@H]5C[C@]6(C[C@@H]7O[C@]8(C[C@H](C)[C@@H]9O[C@H]([C@@H](O)CCN)C[C@@H]9O8)C[C@H](C)[C@@H]7O6)O[C@@H]5C[C@@H]4O[C@H]3C[C@H]3O[C@@H](CC[C@@H]1O2)C[C@@H](C)C3=C [Compound N-1] | – | – | 0.08 | 2.88 | 1.53 | – | –
C=C1C[C@@H]2CC[C@@]34C[C@@]5(O)O[C@H]6[C@@H](O3)[C@H]3O[C@H](CC[C@@H]3O[C@H]6[C@H]5O4)CC(=O)O[C@@H]3[C@@H](C)[C@@H]4O[C@@H]5C[C@]6(C[C@@H]7O[C@]8(C[C@H](C)[C@@H]9O[C@H]([C@@H](O)C[C@@H](O)CO)C[C@@H]9O8)C[C@H](C)[C@@H]7O6)O[C@@H]5C[C@@H]4O[C@H]3C[C@H]3O[C@@H](CC[C@@H]1O2)C[C@@H](C)C3=C [Halichondrin C] | – | – | – | – | – | unstable in aqueous solution in comparison with Halichondrin B | –
C=C1C[C@@H]2CC[C@@]34C[C@H]5O[C@H]6[C@@H](O3)[C@H]3O[C@H](CC[C@@H]3O[C@H]6[C@H]5O4)CC(=O)O[C@@H]3[C@@H](C)[C@@H]4O[C@@H]5C[C@]6(CC7O[C@@]8(C[C@H](C)C7O6)C[C@H](C)[C@@H]6O[C@H](CC(=O)O)[C@H](O)C[C@@H]6O8)O[C@@H]5CC4O[C@H]3C[C@H]3O[C@@H](CC[C@@H]1O2)C[C@@H](C)C3=C (stereo partly shown) [Norhalichondrin B] | – | – | – | – | – | – | much weaker than Halichondrin B
